Assay results from ChEMBL document CHEMBL4229339, “Total syntheses and stereochemical reassignments of mollenines A and B” (Bioorg Med Chem Lett, 2018).
The source made the active and inactive calls.

Assays:
Homo sapiens = species on record: Homo sapiens; experiment: Cytotoxicity against human HeLa/Fucci cells at 5 uM; assay type: functional, cell-based
Escherichia coli = experiment: Antibacterial activity against Escherichia coli at 5 uM; assay type: functional, organism-based
Candida albicans = experiment: Antifungal activity against Candida albicans at 5 uM; assay type: functional, organism-based
Bacillus cereus = experiment: Antibacterial activity against Bacillus cereus at 5 uM; assay type: functional, organism-based

Measured: Activity

CC(C)=CC[C@@]12C[C@H]3C(=O)O[C@@H](CC(C)C)C(=O)N3[C@@H]1Nc1ccccc12
inactive: all assays above

CC(C)=CCC12CC3C(=O)OC(CC(C)C)C(=O)N3C1Nc1ccccc12 (single isomer, unassigned; (+))
inactive: all assays above

CC(C)=CC[C@@]12C[C@H]3C(=O)O[C@@H](CC(C)C)C(=O)N3[C@@H]1N(C=O)c1ccccc12
inactive: all assays above

CC(C)=CC[C@@]12C[C@@H]3C(=O)N[C@@H](CC(C)C)C(=O)N3[C@@H]1Nc1ccccc12
inactive: all assays above

CC(C)=CC[C@@]12C[C@H]3C(=O)O[C@H](CC(C)C)C(=O)N3[C@@H]1Nc1ccccc12
inactive: all assays above

CC(C)=CCC12CC3C(=O)OC(CC(C)C)C(=O)N3C1Nc1ccccc12 (stereo in doubt; (+)-7)
inactive: all assays above
